Patent US10322184B2, “Emulsions for intrapulmonary delivery” (Carnegie Mellon University, priority 2016, dated 2019)

System: Pseudomonas aeruginosa
Assay: Agar well diffusion assessment of emulsified tobramycin availability (effective tobramycin concentration)
Assay type: cell-based
Conditions: aqueous standard solution, 37° C., 24 hours
Method: The presence and availability of emulsified tobramycin was quantified via the commonly used agar well diffusion method of measuring antibiotic content. In this method, the surface of LB agar plates is inoculated with 500 μL of mid-log growth Pseudomonas aeruginosa in tryptic soy broth. Similar methods are disclosed in Omri et al. Pulmonary Retention of Free and Liposome-Encapsulated Tobramycin after Intratracheal Administration in Uninfected Rats and Rats Infected with Pseudomonas aeruginosa. Antimicrobial Agents and Chemotherapy. 1994, 38: 1090-1095. […] Following this evaluation, the effects of Vaq and Caq were assessed using emulsions with Cfs=2 mg/mL H2O of FSH-PEG, Vaq=0.5-2.5%, and Caq=40-200 mg/mL. […]
For each formulation evaluated, approximately 10 mL of emulsion was prepared in a 15-mL centrifuge tube and allowed to sit at room temperature without agitation for five minutes before sampling. […] Following incubation, circular inhibition zones produced by tobramycin that had diffused into the agar were imaged and measured. Interpolation from the inhibition zones of aqueous standard solutions was then used to determine effective tobramycin concentrations (i.e., the aqueous tobramycin concentration resulting in an identical inhibition area) for each emulsion evaluated. […] Three separate trials were performed for each emulsion formulation evaluated. […]

NC[C@H]1O[C@H](O[C@H]2[C@H](O)[C@@H](O[C@H]3O[C@H](CO)[C@@H](O)[C@H](N)[C@H]3O)[C@H](N)C[C@@H]2N)[C@H](N)C[C@@H]1O [tobramycin]
Aqueous tobramycin concentration producing the smallest measurable inhibition zone: 5 µg/mL
